Experimental data taken from ChEMBL document CHEMBL1201862, “PubChem BioAssay data set” (2004).
Calls of active or inactive are those of the source.

Assays:
Ion channel NompC = Ion channel NompC (Danio rerio, UniProt Q7T1G6); test: Fluorescence counterscreen assay for TRPML3 agonists: dose response cell-based high-throughput screening assay to identify agonists of the transient receptor potential channel N1 (TRPN1). [Related pubchem assays: 1526, 1424, 1448 ]; type: functional
[1] = target: Disintegrin and metalloproteinase domain-containing protein 17 (Homo sapiens, UniProt P78536); test: ADAM17 protease inhibitors, dose response, counter-screen for ADAM10 exosite inhibitor project, biochemical, quenched FRET substrate (AID 743253)
Sequence of Disintegrin and metalloproteinase domain-containing protein 17 (P78536 whole entry, the tested form may be a part): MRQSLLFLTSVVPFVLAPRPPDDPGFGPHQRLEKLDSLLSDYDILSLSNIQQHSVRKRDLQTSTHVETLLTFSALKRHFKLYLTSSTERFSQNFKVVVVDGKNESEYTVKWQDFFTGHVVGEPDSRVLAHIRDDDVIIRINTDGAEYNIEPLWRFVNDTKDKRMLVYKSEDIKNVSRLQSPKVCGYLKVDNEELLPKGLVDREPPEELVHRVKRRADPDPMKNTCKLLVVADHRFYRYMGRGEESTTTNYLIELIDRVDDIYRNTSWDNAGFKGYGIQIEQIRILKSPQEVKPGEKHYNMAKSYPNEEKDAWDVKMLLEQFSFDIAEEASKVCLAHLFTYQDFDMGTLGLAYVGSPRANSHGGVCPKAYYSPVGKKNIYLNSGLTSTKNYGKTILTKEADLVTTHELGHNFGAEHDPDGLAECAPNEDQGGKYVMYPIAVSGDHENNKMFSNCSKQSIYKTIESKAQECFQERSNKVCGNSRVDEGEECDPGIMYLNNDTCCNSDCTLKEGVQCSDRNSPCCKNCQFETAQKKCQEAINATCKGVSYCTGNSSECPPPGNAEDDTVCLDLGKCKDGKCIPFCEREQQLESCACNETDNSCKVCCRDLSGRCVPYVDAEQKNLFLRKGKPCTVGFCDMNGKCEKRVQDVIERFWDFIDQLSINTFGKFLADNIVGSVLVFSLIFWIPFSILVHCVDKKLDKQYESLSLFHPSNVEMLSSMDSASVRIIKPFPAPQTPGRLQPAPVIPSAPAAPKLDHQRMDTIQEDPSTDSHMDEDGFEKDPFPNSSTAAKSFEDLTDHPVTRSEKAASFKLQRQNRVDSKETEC

[2] = Luminescence Cell-Based Dose Retest to Confirm Inhibitors of Cancer Stem Cells. [Related pubchem assays (depositor defined):AID2717, AID2721]; type: functional; conditions: Homo sapiens
Mucolipin-3 = target: T1, Mucolipin-3 (Homo sapiens, UniProt Q8TDD5); test: Dose response cell-based high-throughput screening assay for agonists of the transient receptor potential channel ML3 (TRPML3). [Related pubchem assays: 1526, 1424, 1448 ]; type: functional
T1 sequence (Q8TDD5 whole entry): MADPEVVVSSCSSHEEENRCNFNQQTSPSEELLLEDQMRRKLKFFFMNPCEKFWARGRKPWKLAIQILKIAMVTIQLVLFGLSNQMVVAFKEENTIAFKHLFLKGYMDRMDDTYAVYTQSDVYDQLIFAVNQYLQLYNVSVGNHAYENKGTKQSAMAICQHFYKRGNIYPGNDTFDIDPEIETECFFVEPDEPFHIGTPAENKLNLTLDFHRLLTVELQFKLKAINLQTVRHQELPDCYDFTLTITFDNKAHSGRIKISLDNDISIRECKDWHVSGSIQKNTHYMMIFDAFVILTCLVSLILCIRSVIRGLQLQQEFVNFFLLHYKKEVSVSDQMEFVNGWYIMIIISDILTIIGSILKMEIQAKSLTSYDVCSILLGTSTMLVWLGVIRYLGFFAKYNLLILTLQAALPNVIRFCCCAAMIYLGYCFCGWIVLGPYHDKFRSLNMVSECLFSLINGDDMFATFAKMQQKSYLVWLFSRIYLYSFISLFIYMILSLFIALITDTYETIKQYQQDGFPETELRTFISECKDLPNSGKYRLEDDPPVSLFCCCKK

cells [3] = test: cells
cells [4] = type: functional, cell-based; conditions: HEK-CNG
[5] = Counterscreen for AddAB inhibitors: absorbance-based bacterial cell-based high throughput dose response assay for inhibitors of bacterial viability. [Related pubchem assays (depositor defined):AID435030, AID449728, AID449731, AID488942, AID488955, AID488956]; type: functional
Nonstructural protein 1 = Nonstructural protein 1 (Influenza A virus, UniProt Q194T2); type: functional, Influenza A virus (A/California/07/2009(H1N1))
Sequence of Nonstructural protein 1 (Q194T2 whole entry): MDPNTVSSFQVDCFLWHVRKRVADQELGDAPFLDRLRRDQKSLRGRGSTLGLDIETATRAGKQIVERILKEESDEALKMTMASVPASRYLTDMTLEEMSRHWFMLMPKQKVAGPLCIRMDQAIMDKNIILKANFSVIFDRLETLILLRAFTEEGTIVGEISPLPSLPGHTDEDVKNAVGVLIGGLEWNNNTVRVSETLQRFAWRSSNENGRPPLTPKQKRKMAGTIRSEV

Exodeoxyribonuclease V = target: T2, Exodeoxyribonuclease V (Escherichia coli (strain K12), UniProt P04993+P07648+P08394); test: E. coli RecBCD inhibitors, dose response, counter-screen for AddAB inhibitor project, absorbance, V66 E. coli, mutant T4 phage (AID 492957); type: functional, cell-based, Escherichia coli str. K-12 substr. MG1655
T2 sequence (P04993 whole entry): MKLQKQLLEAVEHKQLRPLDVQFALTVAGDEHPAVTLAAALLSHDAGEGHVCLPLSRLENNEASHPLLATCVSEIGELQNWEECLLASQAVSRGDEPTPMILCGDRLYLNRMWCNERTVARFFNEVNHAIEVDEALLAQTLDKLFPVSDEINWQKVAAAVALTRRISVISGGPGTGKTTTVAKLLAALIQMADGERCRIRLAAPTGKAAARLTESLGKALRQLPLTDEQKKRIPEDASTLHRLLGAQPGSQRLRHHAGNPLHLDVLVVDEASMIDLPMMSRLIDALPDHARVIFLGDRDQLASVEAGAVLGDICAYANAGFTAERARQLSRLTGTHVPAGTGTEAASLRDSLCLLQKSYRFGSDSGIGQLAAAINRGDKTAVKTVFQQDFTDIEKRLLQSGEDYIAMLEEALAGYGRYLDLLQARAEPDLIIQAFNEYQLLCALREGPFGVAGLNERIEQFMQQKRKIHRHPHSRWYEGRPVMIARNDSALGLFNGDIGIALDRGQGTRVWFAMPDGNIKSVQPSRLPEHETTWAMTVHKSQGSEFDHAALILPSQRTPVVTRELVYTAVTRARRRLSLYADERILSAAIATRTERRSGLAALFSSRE
T2 sequence (P07648 whole entry): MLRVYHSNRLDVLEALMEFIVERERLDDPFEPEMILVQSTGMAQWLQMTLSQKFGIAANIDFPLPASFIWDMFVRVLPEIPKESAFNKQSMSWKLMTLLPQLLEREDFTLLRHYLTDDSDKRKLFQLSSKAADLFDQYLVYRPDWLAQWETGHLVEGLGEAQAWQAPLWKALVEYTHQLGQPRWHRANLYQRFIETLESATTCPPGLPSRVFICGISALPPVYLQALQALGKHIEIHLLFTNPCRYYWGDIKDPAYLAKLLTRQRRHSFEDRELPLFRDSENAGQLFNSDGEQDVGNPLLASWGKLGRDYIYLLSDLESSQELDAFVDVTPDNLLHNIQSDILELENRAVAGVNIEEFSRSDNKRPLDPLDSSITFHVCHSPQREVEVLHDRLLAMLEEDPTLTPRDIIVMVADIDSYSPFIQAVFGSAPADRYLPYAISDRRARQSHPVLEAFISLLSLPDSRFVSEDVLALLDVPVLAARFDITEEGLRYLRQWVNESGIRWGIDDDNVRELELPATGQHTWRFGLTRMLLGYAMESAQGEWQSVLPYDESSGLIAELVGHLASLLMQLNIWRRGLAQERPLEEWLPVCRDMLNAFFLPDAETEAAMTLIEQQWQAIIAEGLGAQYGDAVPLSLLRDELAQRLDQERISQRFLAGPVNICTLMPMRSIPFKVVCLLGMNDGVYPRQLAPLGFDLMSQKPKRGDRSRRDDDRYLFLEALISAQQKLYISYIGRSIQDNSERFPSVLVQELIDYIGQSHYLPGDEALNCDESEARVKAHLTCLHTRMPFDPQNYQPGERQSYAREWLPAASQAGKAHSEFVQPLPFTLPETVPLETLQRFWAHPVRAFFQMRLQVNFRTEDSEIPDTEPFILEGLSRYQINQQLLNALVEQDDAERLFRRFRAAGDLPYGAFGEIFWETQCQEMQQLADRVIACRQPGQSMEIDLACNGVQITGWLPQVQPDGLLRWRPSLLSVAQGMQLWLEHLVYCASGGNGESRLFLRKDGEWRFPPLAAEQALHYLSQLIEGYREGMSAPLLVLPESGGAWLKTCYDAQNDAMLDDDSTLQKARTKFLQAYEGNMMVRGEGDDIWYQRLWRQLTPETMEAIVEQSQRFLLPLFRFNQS
T2 sequence (P08394 whole entry): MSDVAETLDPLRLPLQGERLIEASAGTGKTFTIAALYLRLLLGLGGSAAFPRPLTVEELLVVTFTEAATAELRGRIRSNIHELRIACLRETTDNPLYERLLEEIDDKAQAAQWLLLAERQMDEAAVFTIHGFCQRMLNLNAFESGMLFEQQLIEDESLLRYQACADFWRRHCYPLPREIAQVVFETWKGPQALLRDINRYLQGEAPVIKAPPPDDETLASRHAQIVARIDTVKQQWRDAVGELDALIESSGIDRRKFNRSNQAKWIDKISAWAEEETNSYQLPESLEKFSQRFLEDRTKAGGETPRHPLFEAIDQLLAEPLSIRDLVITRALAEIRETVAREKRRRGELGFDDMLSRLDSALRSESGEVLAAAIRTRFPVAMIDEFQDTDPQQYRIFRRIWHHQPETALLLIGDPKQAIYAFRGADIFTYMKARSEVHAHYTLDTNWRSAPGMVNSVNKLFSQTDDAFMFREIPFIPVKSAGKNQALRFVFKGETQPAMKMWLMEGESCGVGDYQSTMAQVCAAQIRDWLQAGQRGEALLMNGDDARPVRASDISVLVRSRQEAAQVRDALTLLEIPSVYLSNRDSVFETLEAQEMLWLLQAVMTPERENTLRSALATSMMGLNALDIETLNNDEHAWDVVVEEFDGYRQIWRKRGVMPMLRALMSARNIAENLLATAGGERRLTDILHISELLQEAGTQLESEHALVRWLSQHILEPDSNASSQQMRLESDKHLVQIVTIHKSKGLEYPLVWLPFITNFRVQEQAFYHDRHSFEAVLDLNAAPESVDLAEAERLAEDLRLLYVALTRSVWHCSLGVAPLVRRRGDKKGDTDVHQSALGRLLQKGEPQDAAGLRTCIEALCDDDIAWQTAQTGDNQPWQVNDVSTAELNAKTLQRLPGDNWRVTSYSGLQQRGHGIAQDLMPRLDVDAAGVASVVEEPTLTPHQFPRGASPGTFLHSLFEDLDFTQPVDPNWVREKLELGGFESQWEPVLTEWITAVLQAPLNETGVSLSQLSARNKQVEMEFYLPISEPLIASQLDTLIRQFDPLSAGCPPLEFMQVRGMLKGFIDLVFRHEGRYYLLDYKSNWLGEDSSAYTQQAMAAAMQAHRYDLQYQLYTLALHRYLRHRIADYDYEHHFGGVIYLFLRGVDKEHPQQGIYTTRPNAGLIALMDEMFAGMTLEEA

Galanin receptor type 3 = Galanin receptor type 3 (Homo sapiens, UniProt O60755); test: Fluorescence-based cell-based primary high throughput dose response assay to identify antagonists of the Galanin Receptor 3 (GalR3).; type: functional
Sequence of Galanin receptor type 3 (O60755 whole entry): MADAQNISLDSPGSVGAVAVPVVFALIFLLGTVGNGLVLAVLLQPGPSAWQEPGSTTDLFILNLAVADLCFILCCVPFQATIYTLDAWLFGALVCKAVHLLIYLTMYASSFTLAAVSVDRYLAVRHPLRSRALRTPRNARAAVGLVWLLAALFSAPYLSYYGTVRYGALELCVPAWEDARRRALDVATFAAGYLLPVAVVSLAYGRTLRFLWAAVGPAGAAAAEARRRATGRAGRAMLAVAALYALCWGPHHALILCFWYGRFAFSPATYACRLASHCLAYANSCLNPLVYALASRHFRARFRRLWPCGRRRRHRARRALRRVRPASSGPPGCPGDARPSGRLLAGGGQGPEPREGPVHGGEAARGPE

[6] = cytotoxicity toward NIH3T3 fibroblasts, dose response, counter-screen, cell-based, ATP luminescence, mouse fibroblasts (AID 2010); type: functional;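 note: cells exposed to compound for about 90 hours before reading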
[7] = inhibitors of intracellular T. cruzi replication, confirmation, NIH3T3 host cells, beta-gal luminescence (AID 2044); type: functional, cell-based;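 note: intracellular parasites grown in NIH/3T3 mouse fibroblasts as host cells; luminescent beta-galactosidase reporter signal from transgenic T. cruzi replicating inside host cells; inhibitors lower the luminescence signal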
[8] = IGROV1 ovarian cancer cell cytotoxicity, dose response, PAX8 inhibitor project, plate reader, dry powder samples (AID 743043); type: functional, cell-based; conditions: IGROV-1
[9] = NIH:OVCAR-3 ovarian cancer cell cytotoxicity, dose response, PAX8 inhibitor project, plate reader, dry powder samples (AID 743044); type: functional, cell-based
Paired box protein Pax-8 = Paired box protein Pax-8 (Homo sapiens, UniProt Q06710); test: inhibitors of PAX8-driven TPO luciferase reporter, dose response, RMG-I cells, cherry-pick (AID 687027); type: functional, cell-based;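 note: luciferase reporter driven by Pax8 target thyroperoxidase promoter measured by SteadyGlo luminescence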
Sequence of Paired box protein Pax-8 (Q06710 whole entry): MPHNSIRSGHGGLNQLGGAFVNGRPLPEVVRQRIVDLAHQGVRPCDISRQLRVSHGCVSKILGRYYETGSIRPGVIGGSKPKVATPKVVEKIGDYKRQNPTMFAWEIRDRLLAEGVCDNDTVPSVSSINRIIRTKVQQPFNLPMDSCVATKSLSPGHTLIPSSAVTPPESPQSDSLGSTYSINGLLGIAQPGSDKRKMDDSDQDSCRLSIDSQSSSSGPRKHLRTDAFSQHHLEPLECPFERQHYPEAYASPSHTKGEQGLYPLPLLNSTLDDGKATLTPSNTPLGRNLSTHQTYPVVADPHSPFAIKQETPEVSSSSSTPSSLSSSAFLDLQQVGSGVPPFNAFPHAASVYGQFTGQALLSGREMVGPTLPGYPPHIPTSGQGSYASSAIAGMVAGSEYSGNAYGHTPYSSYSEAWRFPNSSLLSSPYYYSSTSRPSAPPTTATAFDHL

[10] = A2780 ovarian cancer cell cytotoxicity, dose response, cytotoxicity control, plate reader, dry powder samples (AID 743046); type: functional, cell-based
[11] = cytotoxicity in OVCAR8 ovarian cancer cells, dose response, PAX8 project, cell-based, plate reader, dry powder samples (AID 743197); type: functional; conditions: OVCAR-8
[12] = T. cruzi intracellular amastigote growth inhibition, dose response, imaging, CA-I/72 strain, bovine embryo skeletal muscle, dry powder (AID 651885); type: functional, cell-based
[13] = target: Potassium channel subfamily K member 3 (Rattus norvegicus, UniProt O54912); test: SAR analysis for the identification of selective inhibitors of the two-pore domain potassium channel TASK1(KCNK3):Automated Electrophysiology.; type: functional
Sequence of Potassium channel subfamily K member 3 (Rattus norvegicus, UniProt O54912) (O54912 whole entry, the tested form may be a part): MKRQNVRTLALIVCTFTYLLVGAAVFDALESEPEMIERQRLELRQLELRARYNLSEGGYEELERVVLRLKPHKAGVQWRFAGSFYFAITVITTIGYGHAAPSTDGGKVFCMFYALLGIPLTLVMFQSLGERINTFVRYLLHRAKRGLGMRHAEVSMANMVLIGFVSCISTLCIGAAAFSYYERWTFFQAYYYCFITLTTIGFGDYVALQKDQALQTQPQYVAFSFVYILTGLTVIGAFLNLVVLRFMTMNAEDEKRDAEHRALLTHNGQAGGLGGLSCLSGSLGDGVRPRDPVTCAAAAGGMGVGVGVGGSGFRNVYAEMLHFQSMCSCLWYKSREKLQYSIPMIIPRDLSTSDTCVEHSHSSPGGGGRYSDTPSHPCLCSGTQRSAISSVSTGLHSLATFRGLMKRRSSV

[14] = target: Potassium channel subfamily K member 3 (Homo sapiens, UniProt O14649); test: TASK1 (KCNK3) potassium channel inhibitors, SAR follow-up, CHO cells, FluxOR thallium flux (AID 652212); type: functional
Sequence of Potassium channel subfamily K member 3 (Homo sapiens, UniProt O14649) (O14649 whole entry): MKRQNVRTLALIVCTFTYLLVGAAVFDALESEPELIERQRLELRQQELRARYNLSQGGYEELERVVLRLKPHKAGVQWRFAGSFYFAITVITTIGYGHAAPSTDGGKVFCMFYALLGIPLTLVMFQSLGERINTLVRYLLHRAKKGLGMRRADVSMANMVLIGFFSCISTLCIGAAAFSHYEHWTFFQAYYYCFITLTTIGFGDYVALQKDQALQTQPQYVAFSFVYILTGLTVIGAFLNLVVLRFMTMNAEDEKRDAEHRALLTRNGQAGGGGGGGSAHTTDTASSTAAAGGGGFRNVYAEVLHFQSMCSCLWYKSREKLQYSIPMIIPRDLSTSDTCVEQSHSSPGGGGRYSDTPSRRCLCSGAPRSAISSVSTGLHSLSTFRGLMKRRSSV

[15] = target: Potassium channel subfamily K member 9 (Homo sapiens, UniProt Q9NPC2); test: TASK3 (KCNK9) channel inhibitors, thallium flux, SAR follow-up, selectivity assay for TASK1 inhibitor project, cell-based, FluxOR thallium flux, concentration-response (AID 652211); type: functional;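 note: potency is for inhibitors of the channel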
Sequence of Potassium channel subfamily K member 9 (Q9NPC2 whole entry): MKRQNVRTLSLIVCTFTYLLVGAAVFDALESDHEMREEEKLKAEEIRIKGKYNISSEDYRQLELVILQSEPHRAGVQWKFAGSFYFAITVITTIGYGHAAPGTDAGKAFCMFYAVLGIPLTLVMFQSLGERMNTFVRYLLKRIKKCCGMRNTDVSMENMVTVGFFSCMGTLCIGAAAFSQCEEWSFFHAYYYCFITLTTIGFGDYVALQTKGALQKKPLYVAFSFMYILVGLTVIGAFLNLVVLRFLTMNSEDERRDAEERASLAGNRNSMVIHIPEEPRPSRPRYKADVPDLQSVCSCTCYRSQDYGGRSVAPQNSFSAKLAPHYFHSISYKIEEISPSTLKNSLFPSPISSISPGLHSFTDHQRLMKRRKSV

Sequence of Ion channel NompC (Q7T1G6 whole entry, the tested form may be a part): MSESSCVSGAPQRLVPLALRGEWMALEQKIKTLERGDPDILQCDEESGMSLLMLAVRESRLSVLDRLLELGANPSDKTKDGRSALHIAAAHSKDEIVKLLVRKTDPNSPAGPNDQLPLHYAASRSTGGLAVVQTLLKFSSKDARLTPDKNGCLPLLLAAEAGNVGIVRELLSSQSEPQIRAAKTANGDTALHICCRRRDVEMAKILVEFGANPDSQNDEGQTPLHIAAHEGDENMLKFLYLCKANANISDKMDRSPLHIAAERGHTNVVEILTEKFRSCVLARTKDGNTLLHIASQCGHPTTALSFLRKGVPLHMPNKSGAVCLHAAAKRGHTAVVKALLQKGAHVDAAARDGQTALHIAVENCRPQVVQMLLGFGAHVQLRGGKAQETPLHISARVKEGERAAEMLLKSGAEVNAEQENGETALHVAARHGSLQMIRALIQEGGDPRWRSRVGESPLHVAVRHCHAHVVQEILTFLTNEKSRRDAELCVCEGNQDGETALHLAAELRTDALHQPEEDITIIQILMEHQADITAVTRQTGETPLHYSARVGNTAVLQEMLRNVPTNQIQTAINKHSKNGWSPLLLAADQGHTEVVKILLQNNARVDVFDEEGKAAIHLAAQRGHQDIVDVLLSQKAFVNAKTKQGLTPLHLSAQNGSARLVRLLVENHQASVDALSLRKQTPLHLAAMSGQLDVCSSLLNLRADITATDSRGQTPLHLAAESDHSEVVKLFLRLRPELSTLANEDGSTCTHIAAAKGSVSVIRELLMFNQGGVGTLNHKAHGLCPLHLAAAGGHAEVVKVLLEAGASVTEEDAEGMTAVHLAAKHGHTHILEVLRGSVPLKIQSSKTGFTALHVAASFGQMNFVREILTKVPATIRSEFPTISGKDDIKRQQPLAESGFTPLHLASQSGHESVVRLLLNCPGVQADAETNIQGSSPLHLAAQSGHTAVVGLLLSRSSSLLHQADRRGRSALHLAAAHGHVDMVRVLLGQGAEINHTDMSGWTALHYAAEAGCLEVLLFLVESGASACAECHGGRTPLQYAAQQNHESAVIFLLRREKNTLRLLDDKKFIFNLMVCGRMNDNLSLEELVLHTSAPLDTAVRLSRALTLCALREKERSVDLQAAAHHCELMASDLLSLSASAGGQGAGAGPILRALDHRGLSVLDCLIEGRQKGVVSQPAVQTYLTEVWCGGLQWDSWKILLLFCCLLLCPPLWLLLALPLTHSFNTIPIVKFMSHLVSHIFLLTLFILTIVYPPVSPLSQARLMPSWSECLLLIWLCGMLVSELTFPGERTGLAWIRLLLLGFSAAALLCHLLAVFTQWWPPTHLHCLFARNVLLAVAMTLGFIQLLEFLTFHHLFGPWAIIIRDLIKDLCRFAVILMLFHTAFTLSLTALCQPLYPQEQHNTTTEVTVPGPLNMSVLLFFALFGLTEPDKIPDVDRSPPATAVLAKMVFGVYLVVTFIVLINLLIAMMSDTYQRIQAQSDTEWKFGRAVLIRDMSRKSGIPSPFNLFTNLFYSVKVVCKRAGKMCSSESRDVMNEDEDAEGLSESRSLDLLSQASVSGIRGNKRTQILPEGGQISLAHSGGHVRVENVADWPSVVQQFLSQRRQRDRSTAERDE

## CCOC(=O)c1c(CSc2ccc(C)cc2)oc2ccc(O)cc12
Ion channel NompC
  EC50: > 29.9 µM (not active)
[1]
  IC50: > 69.6 µM (inactive)
[2]
  AC50: 3.94 µM (active)
Mucolipin-3
  EC50: 4.33 µM (active)

## C=CCN1/C(=C/c2ccc3cc(C)ccc3[n+]2CC)C=Cc2ccccc21
Cells [3]
  EC50: 0.054 µM (active)
Cells [4]
  EC50: > 29.9 µM (inactive)
[5]
  IC50: 35.8 µM (inactive)
Nonstructural protein 1
  IC50: 11.7 µM (active)
Exodeoxyribonuclease V
  IC50: > 39.5 µM (inactive)
Galanin receptor type 3
  IC50: > 0.123 µM (active)
[6]
  EC50: 6.53 µM (active)
[7]
  EC50: < 0.1 µM (active)

## C[C@@H]1CN([C@@H](C)CO)C(=O)c2cc(NS(=O)(=O)c3ccc(F)cc3)ccc2O[C@@H](C)CCCCO[C@@H]1CN(C)Cc1ccc(C(F)(F)F)cc1
[8]
  AC50: 57.6 µM (active)
[9]
  AC50: 40.5 µM (active)
Paired box protein Pax-8
  AC50: 8.92 µM (active)
[10]
  AC50: 62.8 µM (active)
[11]
  AC50: 55.4 µM (active)

## CC(C)N1C[C@H](C)[C@@H](CN(C)C(=O)OC(C)(C)C)Oc2c(C#N)cccc2C1=O
[12]
  IC50: > 20 µM (inactive)

## COc1ccccc1NC(=O)c1cccc(NC(=O)c2ccccc2C(F)(F)F)c1
[13]
  IC50: 0.149 µM (active)
[14]
  IC50: 0.042 µM (active)
[15]
  IC50: 1.32 µM (active)
